Data as given in publication PMC4528135, “Kinetic Investigations of the Role of Factor Inhibiting Hypoxia-inducible Factor (FIH) as an Oxygen Sensor” (The Journal of Biological Chemistry, 2015).
Several values for one entry are separate records, joined by “and”; a condition that tells them apart may be missing. Equal entries are not always repeated. Where two headings read alike, the source gives them in different places.

How the values were obtained:
Format in all cases: biochemical
[1] = target: T1, PHD2 (catalytic domain, residues 181–426) (Homo sapiens, UniProt Q9GZT9); assay: Steady-state kinetics of PHD2-catalyzed HIF-α CODD/NODD hydroxylation (MALDI-TOF-MS); conditions: 4 mM L-ascorbate, 50 mM HEPES pH 7.5, 37 °C; for kcat^app: PHD2, 4 μM PHD2, 50 μM Fe(II); for Km: 50 μM Fe(II), triplicate assays
T1 construct: The catalytic domain of PHD2 (residues 181–426) was purified as described; made in house
T1 sequence (Q9GZT9 181-426): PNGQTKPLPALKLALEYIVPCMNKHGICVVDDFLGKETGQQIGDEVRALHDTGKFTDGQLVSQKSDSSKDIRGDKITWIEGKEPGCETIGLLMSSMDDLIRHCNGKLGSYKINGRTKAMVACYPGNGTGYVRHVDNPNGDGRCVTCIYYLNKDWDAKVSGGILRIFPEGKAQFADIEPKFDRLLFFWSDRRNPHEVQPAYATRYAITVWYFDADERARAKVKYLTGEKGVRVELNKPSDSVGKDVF
Protocol: Enzymatic assays were conducted as described ([46], [47]). Unless otherwise stated, the assay mixture typically contained 5 μM FIH, 500 μM substrate, 500 μM 2OG, 1 mM L-ascorbate, and 50 μM Fe(NH4)2(SO4)2 or 4 μM PHD2, 100 μM substrate, 300 μM 2OG, 4 mM L-ascorbate, and 50 μM Fe(NH4)2(SO4)2. For HIF-1α CODD19-mer, the background levels of methionine oxidation resulting from assay conditions were subtracted based on non-enzymatic controls ([48]).
The O2 dependence of FIH-catalyzed reactions was determined by conducting enzymatic assays in an “In vivo 500 Hypoxia Workstation” (Ruskinn) using buffers pre-equilibrated under different pO2 values for 24 h. The O2 dependence of PHD2-catalyzed reactions was determined by conducting enzymatic assays in sealed glass vials with variable N2/O2 contents ([42]). Reactions were stopped by spotting samples onto a matrix-assisted laser desorption/ionization-time of flight mass spectrometry (MALDI-TOF-MS) target plate and immediately mixing with α-cyano-4-hydroxycinnamic acid matrix. Hydroxylation levels were assessed by MALDI-TOF-MS as described ([46]).

[2] = target: T2, PHD2 (Homo sapiens, UniProt Q9GZT9); assay: Stopped-flow UV-visible spectroscopy, PHD2·Fe(II)·2OG·substrate + O2; conditions: anaerobic 0.8 mM PHD2, 1 mM peptide, 5 mM 2OG, 50 mM HEPES pH 7.5, mixed 1:1 with O2-saturated buffer at 5 °C, double exponential fit; for Stopped-flow, 520 nm (PHD2) kfall phase: traces average of triplicate
T2 construct: The catalytic domain of PHD2 (residues 181–426) was purified as described; made in house
T2 sequence (Q9GZT9 181-426): as above
Protocol: Stopped-flow UV-visible spectroscopy experiments were performed as described previously ([32], [42]). […] The reaction was observed over 1000 s using a photodiode array detector, and kinetic traces were analyzed using Origin version 8.51 software. Data were fitted with a double exponential function (y = A1 × exp(−kriset) + A2 × exp(−kfallt) + y0). The A1, A2, and y0 parameters were restricted with upper limits to match the observed amplitude/offset changes.
Previously reported pre-steady-state kinetic studies on PHD2 focused on its reaction with CODD HIF-1α 19-mer peptide ([38], [42]); there is no reported information on the rates of PHD2 reaction with O2 in the presence of NODD HIF-1α or HIF-2α substrates. To ascertain whether a slow reaction with O2 under pre-steady-state conditions is common to PHD2-catalyzed hydroxylation of both CODD and NODD, we investigated the reaction of PHD2 with NODD substrates in comparison with CODD for both HIF-1α and HIF-2α. Pre-steady-state reactions of PHD2 were initiated by rapid mixing of anaerobic PHD2·Fe(II)·2OG·HIF-α complexes with O2-saturated buffer at 5 °C. Reactions were initially observed using a photodiode array detector, and difference spectra (in comparison with the reaction with O2-free buffer) were subsequently analyzed.
FIGURE 5. Pre-steady-state kinetics of PHD2-catalyzed HIF-1/2α hydroxylation. […] B, stopped-flow kinetic traces at 520 nm showing absorbance changes in control experiments: Fe(II) only, mix of Fe(II) and 2OG, reaction of PHD2·Fe(II)·2OG complex with O2 in the absence of CODD; reaction of PHD2·Fe(II)·N-oxalylglycine (NOG)·CODD complex with O2. N-Oxalylglycine is an inhibitor of 2OG oxygenases. […] The kinetic traces represent the average of triplicate assays. E, HIF-1/2α peptide hydroxylation, as determined by MALDI-TOF-MS. Reactions were quenched with 1% CF3CO2H at defined time points.

[3] = target: T2, PHD2; assay: Rapid quench-flow, PHD2 pre-steady-state product and succinate formation; conditions: same mixture as stopped-flow, O2-saturated buffer 1:1, 5 °C, quenched with 1% CF3CO2H; for Rapid quench-flow kproduct: peptide hydroxylation by MALDI-TOF-MS, single exponential fit; for Rapid quench-flow ksuccinate: succinate by LC-MS
Protocol: Rapid quench-flow experiments were performed using the same conditions and preparation of the assay mixture as used in stopped-flow experiments. Rapid quench-flow equipment (TgK Scientific Ltd.) in an anaerobic glove box was used for the experiments. Samples were quenched with 1% CF3CO2H and analyzed using MALDI-TOF-MS (peptide hydroxylation) as described above or liquid chromatography-mass spectrometry (LC-MS, for succinate production). For LC-MS, chromatographic separation was performed at 50 °C using a Waters ACQUITY BEH Amide 1.7-μm, 2.1 × 100-mm column on a Waters ACQUITY^TM ultraperformance liquid chromatography system (Waters Corp., Milford, MA). The following eluents were used: mobile phase A: 10% H2O, 90% acetonitrile (v/v), 10 mM ammonium formate; mobile phase B: 50% H2O, 50% acetonitrile (v/v), 10 mM ammonium formate. The elution gradient was 0–7.0 min linear from 10 to 30% B, and 7.0–9.0 min at 10% B for re-equilibration of the column. A constant flow rate of 0.4 ml/min was used. Analytes were detected in negative ionization mode using single reaction monitoring on a Quattro triple quadrupole mass spectrometer (Waters) with a cone voltage of 15 V and a capillary voltage of 3.0 kV. The desolvation temperature was set to 250 °C, and the source temperature was set to 120 °C.
To investigate correlation of the spectroscopic observations with rates of product accumulation, equivalent reactions were analyzed by rapid quench-flow methodology. Anerobically prepared PHD2·Fe(II)·2OG·peptide substrate complexes were mixed with O2-saturated buffer in a 1:1 ratio; reactions were quenched at defined time points with 1% aqueous CF3CO2H. The level of peptide hydroxylation was assessed by MALDI-TOF-MS ([42]), and succinate accumulation was analyzed by LC-MS. To obtain rate constants for product accumulation, the results were fitted with a single exponential function (Fig. 5E and Table 3).

[4] = PHD2, 4 μM PHD2, peptide varied, 300 μM 2OG, read-out: Km^app(peptide)
[5] = PHD2 with the named substrate, 4 μM PHD2, 2OG varied, read-out: Km^app(2OG)

Sequence	kcat^app [1]	Km [1, 4]	Km [1, 5]	Stopped-flow, 520 nm (PHD2) krise phase [2]	Stopped-flow, 520 nm (PHD2) kfall phase ([2]; listed as NODD HIF-2α)	Rapid quench-flow kproduct [3]	Rapid quench-flow ksuccinate [3]	Stopped-flow, 520 nm (PHD2) kfall phase [2]
EELAQLAPTPGDAIISLDF [HIF-2α NODD, 19-mer fragment (398–416) of the HIF-2α N-terminal oxygen-dependent degradation domain, PHD2 substrate]	0.013 ± 0.001 s⁻¹	50 ± 8 µM	17 ± 5 µM	0.003 ± 0.001 s⁻¹	0.195 ± 0.003 s⁻¹ and 0.195 ± 0.009 s⁻¹	0.0199 ± 0.0032 s⁻¹	0.0270 ± 0.0060 s⁻¹	–
ELDLETLAPYIPMDGEDFQ [HIF-2α CODD, 19-mer fragment (523–541) of the HIF-2α C-terminal oxygen-dependent degradation domain, PHD2 substrate]	0.069 ± 0.006 s⁻¹	34 ± 10 µM	9 ± 2 µM	0.027 ± 0.001 s⁻¹	–	0.0124 ± 0.0030 s⁻¹	0.0120 ± 0.0070 s⁻¹	0.450 ± 0.010 s⁻¹
